In ChEMBL document CHEMBL4251615, “Discovery of anilino-furo[2,3-d]pyrimidine derivatives as dual inhibitors of EGFR/HER2 tyrosine kinase and their anticancer activity” (Eur J Med Chem, 2018):

Tests used:
SR = assay: Growth inhibition of human SR cells assessed as cell growth at 10 uM incubated for 48 hrs by sulforhodamine B assay relative to control; assay type: functional; conditions: read-out: Activity
U-251 = assay: Growth inhibition of human U251 cells assessed as cell growth at 10 uM incubated for 48 hrs by sulforhodamine B assay relative to control; assay type: functional; conditions: U-251, 48 h, read-out: Activity
MOLT-4 = assay: Growth inhibition of human MOLT4 cells assessed as cell growth at 10 uM incubated for 48 hrs by sulforhodamine B assay relative to control; assay type: functional; conditions: MOLT-4, 48 h, read-out: Activity
KM12 = assay: Growth inhibition of human KM12 cells assessed as cell growth at 10 uM incubated for 48 hrs by sulforhodamine B assay relative to control; assay type: functional; conditions: KM12, 48 h, read-out: Activity
OVCAR-4 = assay: Growth inhibition of human OVCAR4 cells assessed as cell growth at 10 uM incubated for 48 hrs by sulforhodamine B assay relative to control; assay type: functional; conditions: OVCAR-4, 48 h, read-out: Activity
OVCAR-3 = assay: Growth inhibition of human OVCAR3 cells assessed as cell growth at 10 uM incubated for 48 hrs by sulforhodamine B assay relative to control; assay type: functional; conditions: OVCAR-3, 48 h, read-out: Activity
786-0 = assay: Growth inhibition of human 786-0 cells assessed as cell growth at 10 uM incubated for 48 hrs by sulforhodamine B assay relative to control; assay type: functional; conditions: 786-0, 48 h, read-out: Activity
UACC-62 = assay: Growth inhibition of human UACC62 cells assessed as cell growth at 10 uM incubated for 48 hrs by sulforhodamine B assay relative to control; assay type: functional; conditions: UACC-62, 48 h, read-out: Activity
NCI-H522 = assay: Growth inhibition of human NCI-H522 cells assessed as cell growth at 10 uM incubated for 48 hrs by sulforhodamine B assay relative to control; assay type: functional; conditions: NCI-H522, 48 h, read-out: Activity
EKVX = assay: Growth inhibition of human EKVX cells assessed as cell growth at 10 uM incubated for 48 hrs by sulforhodamine B assay relative to control; assay type: functional; conditions: read-out: Activity
HOP-62 = assay: Growth inhibition of human HOP62 cells assessed as cell growth at 10 uM incubated for 48 hrs by sulforhodamine B assay relative to control; assay type: functional; conditions: HOP-62, 48 h, read-out: Activity
NCI/ADR-RES = assay: Growth inhibition of human NCI/ADR-RES cells assessed as cell growth at 10 uM incubated for 48 hrs by sulforhodamine B assay relative to control; assay type: functional; conditions: read-out: Activity
OVCAR-8 = assay: Growth inhibition of human OVCAR8 cells assessed as cell growth at 10 uM incubated for 48 hrs by sulforhodamine B assay relative to control; assay type: functional; conditions: OVCAR-8, 48 h, read-out: Activity
A549 = assay: Growth inhibition of human A549/ATCC cells assessed as cell growth at 10 uM incubated for 48 hrs by sulforhodamine B assay relative to control; assay type: functional; conditions: A549, 48 h, read-out: Activity
OVCAR-5 = assay: Growth inhibition of human OVCAR5 cells assessed as cell growth at 10 uM incubated for 48 hrs by sulforhodamine B assay relative to control; assay type: functional; conditions: OVCAR-5, 48 h, read-out: Activity
COLO 205 = assay: Growth inhibition of human COLO205 cells assessed as cell growth at 10 uM incubated for 48 hrs by sulforhodamine B assay relative to control; assay type: functional; conditions: COLO 205, 48 h, read-out: Activity
NCI-H460 = assay: Growth inhibition of human NCI-H460 cells assessed as cell growth at 10 uM incubated for 48 hrs by sulforhodamine B assay relative to control; assay type: functional; conditions: NCI-H460, 48 h, read-out: Activity
HL-60(TB) = assay: Growth inhibition of human HL-60(TB) cells assessed as cell growth at 10 uM incubated for 48 hrs by sulforhodamine B assay relative to control; assay type: functional; conditions: HL-60, 48 h, read-out: Activity
SK-OV-3 = assay: Growth inhibition of human SKOV3 cells assessed as cell growth at 10 uM incubated for 48 hrs by sulforhodamine B assay relative to control; assay type: functional; conditions: SK-OV-3, 48 h, read-out: Activity
[1] = target: Epidermal growth factor receptor (Homo sapiens, UniProt P00533); assay: Inhibition of recombinant human C-terminal His/N-terminal GST-tagged EGFR (668 to 1210 residues) expressed in baculovirus infected Sf9 cells at 10 uM using biotin-labeled poly[Glu:Tyr] (4:1) as substrate after 30 mins by Kinase-Glo plus luminescence assay relative to control
Sequence of Epidermal growth factor receptor (P00533 whole entry, the tested form may be a part): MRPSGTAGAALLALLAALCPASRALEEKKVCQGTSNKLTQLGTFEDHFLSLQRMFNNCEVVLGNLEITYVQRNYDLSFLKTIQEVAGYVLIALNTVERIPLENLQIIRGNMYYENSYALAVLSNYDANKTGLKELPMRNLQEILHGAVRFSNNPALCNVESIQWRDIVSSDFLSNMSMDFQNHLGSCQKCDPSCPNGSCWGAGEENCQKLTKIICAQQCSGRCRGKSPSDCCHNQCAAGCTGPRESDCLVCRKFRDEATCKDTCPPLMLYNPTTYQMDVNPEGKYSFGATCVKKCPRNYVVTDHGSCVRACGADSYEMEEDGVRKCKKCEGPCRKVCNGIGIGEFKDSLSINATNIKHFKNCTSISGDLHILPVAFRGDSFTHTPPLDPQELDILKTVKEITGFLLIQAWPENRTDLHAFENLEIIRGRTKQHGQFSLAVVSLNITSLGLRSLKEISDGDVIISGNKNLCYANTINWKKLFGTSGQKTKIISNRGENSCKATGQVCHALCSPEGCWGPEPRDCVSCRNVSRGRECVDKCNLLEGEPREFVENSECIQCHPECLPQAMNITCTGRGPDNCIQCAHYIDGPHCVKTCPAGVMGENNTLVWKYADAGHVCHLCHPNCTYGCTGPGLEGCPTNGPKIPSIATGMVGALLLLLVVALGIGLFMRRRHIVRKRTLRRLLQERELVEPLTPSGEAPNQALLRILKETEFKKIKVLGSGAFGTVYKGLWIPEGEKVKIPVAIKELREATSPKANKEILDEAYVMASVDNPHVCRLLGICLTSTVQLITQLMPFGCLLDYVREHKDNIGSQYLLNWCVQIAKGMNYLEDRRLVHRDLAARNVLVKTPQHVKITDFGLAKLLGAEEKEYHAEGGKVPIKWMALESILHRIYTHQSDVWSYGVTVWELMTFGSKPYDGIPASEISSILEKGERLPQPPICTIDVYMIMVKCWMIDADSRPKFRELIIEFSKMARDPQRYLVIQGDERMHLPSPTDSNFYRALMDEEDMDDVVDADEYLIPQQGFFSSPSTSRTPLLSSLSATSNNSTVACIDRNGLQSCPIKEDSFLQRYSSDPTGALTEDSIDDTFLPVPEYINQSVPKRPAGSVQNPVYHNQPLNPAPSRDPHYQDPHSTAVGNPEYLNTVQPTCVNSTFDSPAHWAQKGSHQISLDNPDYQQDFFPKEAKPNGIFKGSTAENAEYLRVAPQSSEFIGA

SK-MEL-5 = assay: Growth inhibition of human SK-MEL-5 cells assessed as cell growth at 10 uM incubated for 48 hrs by sulforhodamine B assay relative to control; assay type: functional; conditions: SK-MEL-5, 48 h, read-out: Activity
MDA-MB-435 = assay: Growth inhibition of human MDA-MB-435 cells assessed as cell growth at 10 uM incubated for 48 hrs by sulforhodamine B assay relative to control; assay type: functional; conditions: MDA-MB-435, 48 h, read-out: Activity
NCI-H23 = assay: Growth inhibition of human NCI-H23 cells assessed as cell growth at 10 uM incubated for 48 hrs by sulforhodamine B assay relative to control; assay type: functional; conditions: NCI-H23, 48 h, read-out: Activity
K562 = assay: Growth inhibition of human K562 cells assessed as cell growth at 10 uM incubated for 48 hrs by sulforhodamine B assay relative to control; assay type: functional; conditions: K562, 48 h, read-out: Activity
Hs-578T = assay: Growth inhibition of human Hs 578T cells assessed as cell growth at 10 uM incubated for 48 hrs by sulforhodamine B assay relative to control; assay type: functional; conditions: read-out: Activity
SN12C = assay: Growth inhibition of human SN12C cells assessed as cell growth at 10 uM incubated for 48 hrs by sulforhodamine B assay relative to control; assay type: functional; conditions: read-out: Activity
LOX IMVI = assay: Growth inhibition of human LOXIMVI cells assessed as cell growth at 10 uM incubated for 48 hrs by sulforhodamine B assay relative to control; assay type: functional; conditions: read-out: Activity
DU-145 = assay: Growth inhibition of human DU145 cells assessed as cell growth at 10 uM incubated for 48 hrs by sulforhodamine B assay relative to control; assay type: functional; conditions: DU-145, 48 h, read-out: Activity
PC-3 = assay: Growth inhibition of human PC3 cells assessed as cell growth at 10 uM incubated for 48 hrs by sulforhodamine B assay relative to control; assay type: functional; conditions: PC-3, 48 h, read-out: Activity
BT-549 = assay: Growth inhibition of human BT549 cells assessed as cell growth at 10 uM incubated for 48 hrs by sulforhodamine B assay relative to control; assay type: functional; conditions: BT-549, 48 h, read-out: Activity
ACHN = assay: Growth inhibition of human ACHN cells assessed as cell growth at 10 uM incubated for 48 hrs by sulforhodamine B assay relative to control; assay type: functional; conditions: read-out: Activity
SNB-19 = assay: Growth inhibition of human SNB19 cells assessed as cell growth at 10 uM incubated for 48 hrs by sulforhodamine B assay relative to control; assay type: functional; conditions: SNB-19, 48 h, read-out: Activity
T47D = assay: Growth inhibition of human T47D cells assessed as cell growth at 10 uM incubated for 48 hrs by sulforhodamine B assay relative to control; assay type: functional; conditions: read-out: Activity

Row | SMILES | growth at 10 µM (SR) [%] | growth at 10 µM (U-251) [%] | growth at 10 µM (MOLT-4) [%] | growth at 10 µM (KM12) [%] | growth at 10 µM (OVCAR-4) [%] | growth at 10 µM (OVCAR-3) [%] | growth at 10 µM (786-0) [%] | growth at 10 µM (UACC-62) [%] | growth at 10 µM (NCI-H522) [%] | growth at 10 µM (EKVX) [%] | growth at 10 µM (HOP-62) [%] | growth at 10 µM (NCI/ADR-RES) [%] | growth at 10 µM (OVCAR-8) [%] | growth at 10 µM (A549) [%] | growth at 10 µM (OVCAR-5) [%] | growth at 10 µM (COLO 205) [%] | growth at 10 µM (NCI-H460) [%] | growth at 10 µM (HL-60(TB)) [%] | growth at 10 µM (SK-OV-3) [%] | inhibition [1] [%] | other results
1 | Cc1cccc(Nc2ncnc3oc(C)c(C(=O)NCCO)c23)c1 | 90.8 | 105 | 57.4 | 93.9 | 95 | 108 | 99 | 83.1 | 91.8 | 91.8 | 98.2 | 92.4 | 104 | 89.4 | 95.3 | 99 | 102 | 84.6 | 94.8 | 36 | growth at 10 µM (SK-MEL-5): 94.6%; growth at 10 µM (MDA-MB-435): 97.2%; growth at 10 µM (NCI-H23): 92.8%; growth at 10 µM (K562): 90.2%; growth at 10 µM (Hs-578T): 100%; growth at 10 µM (SN12C): 97.1%; growth at 10 µM (LOX IMVI): 93%; growth at 10 µM (DU-145): 103%; growth at 10 µM (PC-3): 96.1%; growth at 10 µM (BT-549): 90.7%; growth at 10 µM (ACHN): 94.8%; growth at 10 µM (SNB-19): 103%; growth at 10 µM (T47D): 84.3%
2 | Cc1oc2ncnc(Nc3ccc(OCc4cccc(F)c4)c(Cl)c3)c2c1C(=O)NCCO | 99.7 | 48.1 | 68.5 | 68.9 | 66.9 | 78.1 | 61.2 | 55 | 27.9 | 47.8 | 51.1 | 70.8 | 42.8 | 53.5 | 96.9 | 85.7 | 34.7 | 42.4 | 74.2 | 32 | growth at 10 µM (SK-MEL-5): 73.1%; growth at 10 µM (MDA-MB-435): 62.6%; growth at 10 µM (NCI-H23): 58.6%; growth at 10 µM (K562): 33.2%; growth at 10 µM (Hs-578T): 46.1%; growth at 10 µM (SN12C): 45.3%; growth at 10 µM (LOX IMVI): 61.5%; growth at 10 µM (DU-145): 61.7%; growth at 10 µM (PC-3): 57.5%; growth at 10 µM (BT-549): 61.7%; growth at 10 µM (ACHN): 49.7%; growth at 10 µM (SNB-19): 34.3%; growth at 10 µM (T47D): 34.7%
3 | Cc1oc2ncnc(Nc3cccc(F)c3)c2c1C(=O)O | 104 | 106 | 102 | 102 | 101 | 102 | 92 | 90.2 | 93.9 | 101 | 98.4 | 105 | 112 | 101 | 97.6 | 109 | 104 | 35.2 | 102 | 49 | growth at 10 µM (SK-MEL-5): 99.6%; growth at 10 µM (MDA-MB-435): 104%; growth at 10 µM (NCI-H23): 97.6%; growth at 10 µM (K562): 98.5%; growth at 10 µM (Hs-578T): 99.9%; growth at 10 µM (SN12C): 89.7%; growth at 10 µM (LOX IMVI): 98%; growth at 10 µM (DU-145): 107%; growth at 10 µM (PC-3): 108%; growth at 10 µM (BT-549): 93.9%; growth at 10 µM (ACHN): 100%; growth at 10 µM (SNB-19): 94.6%; growth at 10 µM (T47D): 95.6%
